Target: Substance-P receptor (Homo sapiens, UniProt P25103)
Assay: Inhibition of [125I]-Substance P binding to human NK1 receptors in CHO cells
Format: cell-based

Substance-P receptor, sequence (P25103 whole entry): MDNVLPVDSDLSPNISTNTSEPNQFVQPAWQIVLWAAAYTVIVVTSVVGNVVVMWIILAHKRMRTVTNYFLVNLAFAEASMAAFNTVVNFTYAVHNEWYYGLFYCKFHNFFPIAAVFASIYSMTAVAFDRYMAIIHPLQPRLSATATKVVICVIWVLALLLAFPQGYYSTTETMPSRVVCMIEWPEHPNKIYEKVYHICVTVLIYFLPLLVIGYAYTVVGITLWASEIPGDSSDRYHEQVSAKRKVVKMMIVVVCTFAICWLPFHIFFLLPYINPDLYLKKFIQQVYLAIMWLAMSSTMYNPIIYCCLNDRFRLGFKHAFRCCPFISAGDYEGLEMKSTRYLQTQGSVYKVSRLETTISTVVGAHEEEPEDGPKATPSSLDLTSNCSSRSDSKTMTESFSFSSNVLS

| IC50 | Structure (SMILES) |
| --- | --- |
| 280 nM | CCCCCN(CCCCC)C(=O)N1CCN(C(=O)N(c2ccccc2)c2ccccc2)[C@H](CO)C1 |
| 57 nM | CCCCCN(CCCCC)C(=O)N1CCN(C(=O)N(c2ccccc2)c2ccccc2)[C@H](C(=O)NCCN)C1 |
| 290 nM | CCCCCN(CCCCC)C(=O)N1CCN(C(=O)N(c2ccccc2)c2ccccc2)[C@H](C(=O)N(C)CCN(C)Cc2ccccc2)C1 |
| 140 nM | CCCCCN(CCCCC)C(=O)N1CCN(C(=O)N(c2ccccc2)c2ccccc2)[C@H](C(=O)NCCNC(C)=O)C1 |
| 1080 nM | CCCCCN(CCCCC)C(=O)N1CCN(C(=O)N(c2ccccc2)c2ccccc2)[C@H](C(=O)N(C)CCN(C)Cc2cc(C(F)(F)F)cc(C(F)(F)F)c2)C1 |
| 930 nM | CCCCCN(CCCCC)C(=O)N1CCN(C(=O)N(c2ccccc2)c2ccccc2)[C@H](C(=O)N(C)CCN(C)C)C1 |
| 17 nM | CCCCCN(CCCCC)C(=O)N1CCN(C(=O)N(c2ccccc2)c2ccccc2)[C@H](C(=O)N(C)CCN(C)Cc2ccccc2OC)C1 |
| 217 nM | CCCCCN(CCCCC)C(=O)N1CCN(C(=O)N(c2ccccc2)c2ccccc2)[C@H](C(=O)NCCN(C(C)C)C(C)C)C1 |
| 500 nM | CCCCCN(CCCCC)C(=O)N1CCN(C(=O)N(c2ccccc2)c2ccccc2)CC1 |
| 3000 nM | CCCCCN(CCCCC)C(=O)N1CCN(C(=O)N(c2ccccc2)c2ccccc2)[C@@H](C(=O)O)C1 |
| 130 nM | CCCCCN(CCCCC)C(=O)N1CCN(C(=O)N(c2ccccc2)c2ccccc2)[C@H](C(=O)O)C1 |
| 597 nM | CCCCCN(CCCCC)C(=O)N1CCN(C(=O)N(c2ccccc2)c2ccccc2)[C@H](C(=O)NCC(=O)O)C1 |
| 41 nM | CCCCCN(CCCCC)C(=O)N1CCN(C(=O)N(c2ccccc2)c2ccccc2)[C@H](C(=O)NCCCN(CC)CC)C1 |
| 55 nM | CCCCCN(CCCCC)C(=O)N1CCN(C(=O)N(c2ccccc2)c2ccccc2)[C@H](C(=O)NCCN(C)C)C1 |
| 9 nM | CCCCCN(CCCCC)C(=O)N1CCN(C(=O)N(c2ccccc2)c2ccccc2)[C@H](C(=O)NCCNCc2ccccc2OC)C1 |
| 11 nM | CCCCCN(CCCCC)C(=O)N1CCN(C(=O)N(c2ccccc2)c2ccccc2)[C@H](C(=O)NCCN(CC)CC)C1 |
| 200 nM | CCCCCN(CCCCC)C(=O)N1CCN(C(=O)N(c2ccccc2)c2ccccc2)[C@H](C(=O)N(C)CCN(C)Cc2cc(C)cc(C)c2)C1 |
| 267 nM | CCCCCN(CCCCC)C(=O)N1CCN(C(=O)N(c2ccccc2)c2ccccc2)[C@H](C(=O)NCCOC)C1 |
| 9 nM | CCCCCN(CCCCC)C(=O)N1CCN(C(=O)N(c2ccccc2)c2ccccc2)[C@H](C(=O)NCCN(C)Cc2ccccc2OC)C1 |

— ChEMBL document CHEMBL1127162, “1,4-Diacylpiperazine-2-(S)-[(N-aminoalkyl)carboxamides] as novel, potent substance P receptor antagonists” (Bioorg Med Chem Lett, 1993)
